From US10519504B2, “Methods for treatment of oncological disorders using epimetabolic shifters, multidimensional intracellular molecules, or environmental influencers” (Berg LLC, priority 2009, dated 2019)

Assays:
various cell types = experiment: Induction of early apoptosis in oncogenic and normal cell types (Bcl-2, caspase, annexin V); format: cell-based
Procedure: CoQ10 treatment of cells was carried out as described in detail below in the Materials and Methods. Induction of apoptosis was assessed in the treated cells by monitoring indicators of early apoptosis (e.g., Bcl-2 expression, caspase activation and by using annexin V assays) as described below. From these studies, the minimal CoQ10 dosage, e.g., concentration of CoQ10 and time of treatment, required to induce apoptosis in the panel of cell lines was determined.
Cells were cultured in T-75 flasks with relevant medium supplemented with 10% Fetal Bovine Serum (FBS), 1% PSA (penicillin, streptomycin, amphotericin B) (Invitrogen and Cellgro) in a 37° C. incubator with 5% CO2 levels until 70-80% confluence was reached. To harvest cells for treatment, flasks were primed with 1 mL Trypsin, aspirated, trypsinized with an additional 3 mL, and incubated at 37° C. for 3-5 minutes. Cells were then neutralized with an equal volume of media and the subsequent solution was centrifuged at […] for 8 minutes. The supernatant was aspirated and the cells were resuspended with 8.5 ml of media. A mixture of 500 ul of the resuspension and 9.5 ml of […] was read twice by a coulter counter and the appropriate number of cells to be seeded into each dish was determined. Control and concentration ranging from 0-200 μM groups were examined in triplicate. From a 500 μM CoQ-10 stock solution, serial dilutions were performed to achieve desired experimental concentration in appropriate dishes. Dishes were incubated in a 37° C. incubator with 5% CO2 levels for 0-72 hours depending on cell type and experimental protocol.
The volume of sample to load per well was determined using the raw mean concentration of protein obtained from the BCA protein assay. Approximately 30-60 μg of protein were loaded for each treatment time point. Proteins were run in triplicate on 12% Tris-HCl ready gels (Bio-Rad) or hand cast gels in 1× running buffer at 85 and 100 volts. Proteins were then transferred onto nitrocellulose paper for an hour at 100 volts, and blocked for another hour in a 5% milk solution. Membranes were placed in primary antibody (1 uL Ab:1000 uL TBST) (Cell Signaling) overnight at […] The following day, membranes were washed three times for ten minutes each with Tris-Buffered Saline Tween-20 (TBST), and secondary antibody (anti-rabbit; 1 uL Ab: 1000 uL TBST) was applied for an hour at […] Membranes were washed again three times for ten minutes with TBST and chemoluminescence using Pico or Femto substrate was completed (Pierce). Membranes were then developed at time intervals that produced the best visual results. After developing, membranes were kept in TBST at […] until Actin levels could be measured.
Cells were washed twice in PBS10× and resuspended in Binding Buffer (0.1 M HEPES, pH 7.4; 1.4 M NaCl; 25 mM CaCl2). Samples of 100 μl were added to a culture tube with 5 μl of annexin-PE dye or […]. The cells were mixed and incubated without light at room temperature for 15 minutes. After which, 400 μl of 1× Binding Buffer was added to each sample and they were subjected to analysis by flow cytometry.

[1] = test system: HAEC, MCF-7, HepG2 and PC-3 cell lines; experiment: OCR and ECAR, SeaHorse XF analyzer (data not shown); format: cell-based, human; settings: absence and/or presence of stressors (hyperglycemia, hypoxia, lactic acid)
Procedure: (SeaHorse Biosciences Inc, North Billerica, Mass.).
A similar comparison of OCR and ECAR values (data not shown) were determined in numerous other normal and cancer cells lines, including: HAEC (normal human aortic endothelial cells), MCF-7 (breast cancer), HepG2 (liver cancer) and highly metastatic PC-3 (prostate cancer) cell lines. […] Thus, the overall effect of CoQ10 in the treatment of cancer, including cell death, is an downstream effect of its collective influence on proteomic, genomic, metabolomic outcomes in concert with shifting of the cellular bioenergetics from glycolysis to mitochondrial OXPHOS.

## COC1=C(OC)C(=O)C(C/C=C(\C)CC/C=C(\C)CC/C=C(\C)CC/C=C(\C)CC/C=C(\C)CC/C=C(\C)CC/C=C(\C)CC/C=C(\C)CC/C=C(\C)CCC=C(C)C)=C(C)C1=O [Q10, Coenzyme Q10]
Various cell types; BONE: Ewing's sarcoma (NCI), wrapped cell reads Extremely strong
  Indication of Early apoptosis (Bcl-2, annexin V, or caspase activation): Extremely
Various cell types; BREAST: Mammary fiboblasts: 184A1 and 184B5) (Lawrence Berkeley)
  Indication of Early apoptosis (Bcl-2, annexin V, or caspase activation): None
Various cell types; SKIN: Melanoma (Skmel 2)
  Indication of Early apoptosis (Bcl-2, annexin V, or caspase activation): Very Strong
Various cell types; SKIN: Melanoma (Skmel 28)
  Indication of Early apoptosis (Bcl-2, annexin V, or caspase activation): Strong
Various cell types; SKIN: SCC, Squamous cell carcinoma
  Indication of Early apoptosis (Bcl-2, annexin V, or caspase activation): Very Strong
Various cell types; keratinocytes, melanocytes vs SK-MEL-28, SK-MEL-2, SCC, PaCa2, HEP-G2, various levels
  dose dependent response of cancer vs control cell lines: induction of apoptosis and cell death in the cancer cells only
Various cell types; oncogenic cell lines of differing aggressiveness
  efficacy of treatment by cell type: greater in cell types that exhibited increased oncogenicity and/or greater metastatic potential
[1]
  OCR and ECAR values: shift in OCR and ECAR values representative of values observed in a normal cells under normal physiological conditions
